# Tests used:
# [1] = test system: subjects with early manifest Huntington's disease; experiment: Cogstate Two Back Test (TWOB), working memory; format: in vivo, human; conditions: HD Subjects (Part B), 1 mg
# From the text: (§1) Sentinel dosing of subjects was employed for Cohort 3.
# (§2) Cogstate Battery was used to assess cognitive functioning, such as attention, working memory, information processing speed, executive function, and motor skills, and consists of the Stop Signal Reaction Test (STOP), Detection Task (DET), Identification Task (IDN), One Back Learning Task (ONB), Two Back Learning Task (TWOB), and Groton Maze Learning Test (GML).
# (§3) The endpoints for each Cogstate Battery tests are change from baseline scores at each post-baseline assessment.
# (§4) Mean change from baseline scores at all post-baseline assessments were analyzed using mixed-effect repeated measure model (MMRM); with dose, visit, interaction between dose and visit as fixed effects, baseline as a covariate and subject as random effect. Unstructured covariance structure was used to model the variance-covariance matrix of the repeated measurements. If estimation issues arose during construction of covariance structure, compound symmetry was used in place of unstructured. The least square (LS) means differences between dose groups and placebo at each post baseline timepoint were estimated along with 95% confidence intervals.
# [2] = test system: subjects with early manifest Huntington's disease; experiment: Cogstate Groton Maze Learning Test (GML), executive function; format: in vivo, human; conditions: HD Subjects (Part B), 1 mg, all timepoints except for day 4
# From the text: as §1, §2, §3, §4
# [3] = test system: Patients with Huntington's Disease; experiment: Assessment of psychomotor speed (Psychomotor Vigilance Task Test, FIG. 5); format: in vivo, human; conditions: patients with HD, 1 mg
# From the text: FIG. 5 depicts performance measured using the Psychomotor Vigilance Task Test in Patients with Huntington's Disease and Healthy Participants. Z-Transformed Change from Baseline to Day 14 (Mean±SE) is depicted.
# (§5) Additional objectives included an assessment of changes in subject performance on cognitive tasks.
# Patients with HD = experiment: Tests of executive functioning (Cogstate Battery); format: in vivo, human; conditions: 1 mg, FIGS. 1-4
# From the text: as §5, §2, §3
# [4] = Phase 1 MAD study: safety and tolerability of Compound 1 Oral Solution
# From the text: Subjects were assigned sequentially to one of 3 cohorts. […] Cohorts 1 and 2 were divided into 4 sub-groups of 3 subjects. Each sub-group in Part A started dosing on Day 1 over the course of 4 consecutive days, with the remaining dosing days overlapping in a staggered fashion. A maximum of 3 Part A subjects per calendar day per site will begin treatment at Day 1.
# The Screening Period began with the signing of the informed consent form (ICF) at the Screening Visit. An optional genetic sample was collected during screening. On Day −2 (Part A) or Day −1 (Part B), qualified subjects were admitted to the unit. Subjects were discharged from the unit on Day 17 after completion of all assessments, provided that the Investigator was satisfied that it is safe for the subject to be discharged. In total, the inpatient stay for Part A subjects was approximately 19 days, and approximately 18 days for Part B subjects. Subjects returned for a Follow-up Visit on Day 21 (±2 days), approximately one week after the end of treatment.
# [5] = healthy adults (0.5 mg or 1.0 mg) and subjects with early manifest HD, multiple oral doses
smiles,measurement,setting,value
C[C@H](CC[C@](C)(O)C(F)(F)F)[C@H]1CC[C@H]2[C@@H]3CC=C4C[C@@](C)(O)CC[C@]4(C)[C@H]3CC[C@]12C [Compound 1],"Performance on the two-back test vs baseline, statistical significance","[1]; Days 8-14, threshold p<0.05",significant improvement compared to baseline
same,Performance on the two-back test vs baseline,[1]; all timepoints after baseline,improvement in performance
same,Performance in the GML test vs baseline,[2],improvement
same,Change from baseline on assessment of psychomotor speed,[3],No changes from baseline were observed
same,Change from baseline on tests of executive functioning,Patients with HD,improvements from baseline
same,TEAEs in Part B,"[4]; Part B, subjects with HD",No TEAEs were reported
same,Deaths,[4]; [5],No deaths were reported
same,Serious AEs,[4]; [5],No serious AEs were reported
same,TEAEs leading to study withdrawal or treatment discontinuation,[4]; [5],No TEAEs leading to study withdrawal or treatment discontinuation were reported
same,"Suicidal ideation or suicidal behavior compared to baseline, C-SSRS",[4]; measured by C-SSRS,no signals for increased suicidal ideation or suicidal behavior

# Reference: patent US20250041317A1, “NEUROACTIVE STEROID FOR THE TREATMENT OF HUNTINGTON'S DISEASE” (SAGE THERAPEUTICS, INC., priority 2021, published 2025)
